# Results as given in patent US10813913B2, “Small molecules that mimic or antagonize actions of granulocyte colony-stimulating-factor (G-CSF)” (UNIVERSITY OF SOUTH FLORIDA, priority 2016, dated 2020).
# Several values for one entry are separate records, joined by “and”; a condition that tells them apart may be missing. Identical values can stand only once. Entries after “also recorded” stand apart in the source; their conditions may differ.
# T1: G-CSF receptor expressed on human monocytes (Homo sapiens, UniProt Q99062)
# T1 construct: Both cell lines are known to express the G-CSF-R; host or cells: THP-1 (human monocytic cell line), intact cells
# T1 sequence (Q99062 25-836): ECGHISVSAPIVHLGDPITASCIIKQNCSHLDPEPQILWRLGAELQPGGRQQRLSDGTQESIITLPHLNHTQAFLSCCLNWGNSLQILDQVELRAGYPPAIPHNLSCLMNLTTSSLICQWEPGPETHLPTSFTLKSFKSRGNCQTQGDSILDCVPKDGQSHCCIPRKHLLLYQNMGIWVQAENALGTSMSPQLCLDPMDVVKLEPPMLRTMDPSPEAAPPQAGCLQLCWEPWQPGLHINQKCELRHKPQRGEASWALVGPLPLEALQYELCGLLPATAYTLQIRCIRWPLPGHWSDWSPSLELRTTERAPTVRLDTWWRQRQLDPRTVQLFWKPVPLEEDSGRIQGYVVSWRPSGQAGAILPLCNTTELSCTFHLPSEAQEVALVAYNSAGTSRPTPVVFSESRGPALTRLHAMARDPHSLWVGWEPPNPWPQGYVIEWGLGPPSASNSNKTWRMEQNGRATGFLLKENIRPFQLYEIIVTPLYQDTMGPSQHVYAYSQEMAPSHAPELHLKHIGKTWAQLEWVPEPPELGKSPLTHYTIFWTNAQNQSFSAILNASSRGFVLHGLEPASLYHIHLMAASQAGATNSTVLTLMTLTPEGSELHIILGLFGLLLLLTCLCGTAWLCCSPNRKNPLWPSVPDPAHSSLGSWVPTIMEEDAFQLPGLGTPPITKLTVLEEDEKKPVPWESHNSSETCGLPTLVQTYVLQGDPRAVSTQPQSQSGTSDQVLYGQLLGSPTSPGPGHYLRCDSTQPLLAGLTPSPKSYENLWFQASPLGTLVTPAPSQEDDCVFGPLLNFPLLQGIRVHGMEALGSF
# T2: G-CSF receptor on monocytic (THP-1) cells (Homo sapiens, UniProt Q99062)
# T2 construct: Both cell lines are known to express the G-CSF-R; host or cells: THP-1 (human monocytic cell line), intact cells
# T2 sequence (Q99062 25-836): T1 sequence (Q99062 25-836)
# T3: G-CSF receptor on neuronal (SH-SY5Y) cells (Homo sapiens, UniProt Q99062)
# T3 construct: Both cell lines are known to express the G-CSF-R; host or cells: SH-SY5Y (human neuroblastoma cell line, adherent cells), intact cells
# T3 sequence (Q99062 25-836): T1 sequence (Q99062 25-836)
# B1: [^125I]-G-CSF: radio-labeled G-CSF (specific activity 46.55 TBq/mmol) purchased from Perkin Elmer (protein)
# chain: TPLGPASSLPQSFLLKCLEQVRKIQGDGAALQEKLVSECATYKLCHPEELVLLGHSLGIPWAPLSSCPSQALQLAGCLSQLHSGLFLYQGLLQALEGISPELGPTLDTLQLDVADFATTIWQQMEELGMAPALQPTQGAMPAFASAFQRRAGGVLVASHLQSFLEVSYRVLRHLAQP
# modifications: 125I radiolabel (specific activity 46.55 TBq/mmol); labelled residue not stated
# Experiments:
# [1] = biological target: T1, G-CSF receptor expressed on human monocytes; test: Competition/displacement of [125I]-G-CSF from its receptor on monocytes; format: binding; conditions: monocytic cells
# Description: Cells, prepared as described above, were incubated in 180 μL of binding medium containing 0.2% BSA, 5 mM MgSO4 and 50 mM Hepes, pH 7.2 at a concentration of 1.5×10^7 cells/mL and the appropriate concentration of [^125I]-G-CSF. This was followed by addition of increasing concentrations of each study compound (10 to 3000 nM). After 2 hrs of incubation, the amount of bound and free [^125I]-G-CSF was determined, as described above. […] Each concentration was analyzed in triplicate and experiments were repeated three times. These experiments were conducted in human monocytic and neuronal cell lines.
# Displacement studies were then conducted for each of the 10 compounds. […] Compounds 6 and 10, which displaced greater than 75% of the ^125I-G-CSF, were further studied for their capacity to mimic or block the intracellular signaling triggered by the natural ligand.
# [2] = test system: PKCδVIII and Bcl2 expressed in SH-SY5Y neuronal cells; test: Western blot of PKCδVIII and Bcl2 in SH-SY5Y neuronal cells; format: cell-based, human; conditions: for effect on G-CSF-induced Bcl2 expression / effect on G-CSF-induced PKCδVIII expression / Bcl2 protein expression / PKCδVIII protein expression: SH-SY5Y, 24 h; for effect on G-CSF-induced Bcl2 expression / effect on G-CSF-induced PKCδVIII expression: co-incubation with G-CSF 100 ng/mL; for Bcl2 protein expression / PKCδVIII protein expression: compound alone, three concentrations; for agonist/antagonist profile at the G-CSF receptor: neuronal cell line (SH-SY5Y)
# Description: (§1) THP-1 cells or SH-SY5Y cells 3×10^6 cells in 5 mL media in a 25 cm^2 flask were treated with 100 ng/mL G-CSF or three different concentrations of the test drug for 24 h. In addition, a set of flasks were co-incubated with the combination of G-CSF and 3 concentrations of test drug. Whole cell lysates ([…]) were separated on 10% polyacrylamide gel electrophoresis-SDS (PAGE-SDS). Proteins were electrophoretically transferred to nitrocellulose membranes, blocked with 5% nonfat milk prepared on Tris buffered saline containing 0.1% Tween 20, washed and incubated with a polyclonal antibody against either Bcl2 (Cell Signaling, Danvers, Mass.) or PKCδVIII-specific polyclonal antibody (Jiang, K., et al. Biochemistry 2008, 47, 787-797). The house keeping gene GAPDH was used as an internal standard. Following incubation with anti-rabbit IgG-HRP, enhanced chemiluminesence (Pierce™, Thermo Scientific, Walthahm, Mass.) was used for detection and the gels were analyzed using UN-SCAN-IT™ software (Silk Scientific, Inc., Orem, Utah).
# (§2) Statistical analysis. Densitometric results from Western blots were analyzed with two-tailed t-tests when only two groups were compared. In other analyses where 3 groups were compared, one-way ANOVA followed by t-tests with Dunnett's corrections for multiple comparisons was utilized. All data was presented as mean±SEM. All statistical analysis of data was done via PRISM4 or PRISM5 statistical analysis software (GraphPad Prism, La Jolla, Calif.). Neurohistologic analyses are performed using ANOVA. All comparisons were considered significant at level of P<0.05.
# [3] = test system: PKCδVIII and Bcl2 expressed in THP-1 monocytic cells; test: Western blot of PKCδVIII and Bcl2 in THP-1 monocytic cells; format: cell-based, human; conditions: for effect on G-CSF-induced Bcl2 expression / effect on G-CSF-induced PKCδVIII expression: THP-1, co-incubation with G-CSF 100 ng/mL; for effect on G-CSF-induced Bcl2 expression / effect on G-CSF-induced PKCδVIII expression / Bcl2 protein expression / PKCδVIII protein expression: 24 h; for Bcl2 protein expression / PKCδVIII protein expression: THP-1, compound alone, three concentrations; for agonist/antagonist profile at the G-CSF receptor: monocytic cell line (THP-1)
# Description: as §1, with “In” for “THP-1 cells or SH-SY5Y cells 3×10^6 cells in 5 mL media in a 25 cm^2 flask were treated with 100 ng/mL G-CSF or three different concentrations of the test drug for 24 h. In”
# as §2
# [4] = biological target: T2, G-CSF receptor on monocytic (THP-1) cells; test: Saturation binding of [125I]-G-CSF to its receptor on THP-1 cells; conditions: [125I]-G-CSF specific binding
# Description: (§3) Two human cell lines were chosen for cell culture studies. One was a human monocyte cell line that is representative of the peripheral immune system, THP-1, which grows in suspension. The other cell line was a human neuroblastoma cell line (SH-SY5Y) which is a mixed cell line although only adherent cells were utilized (Xie, H. R., et al. Chin. Med. J. (Engl) 2010, 123, 1086-92). Both cell lines are known to express the G-CSF-R. Both cell lines were purchased from ATCC (Manassas, Va.). THP-1 cells were cultured in RPMI-1640 medium supplemented with 10% fetal bovine serum (FBS) plus 1% penicillin-streptomycin (ATCC, Manassas, Va.) in a humidified atmosphere of 5% CO2 at 37° C. […]
# (§4) Binding of [^125I]-G-CSF was measured using previously described method (Kondo, S., et al. Eur. J. Haematol. 1991, 46, 223-30) with some modifications (Pennington, A., et al. Alzheimer's Disease and Parkinsonism 2013, 3, 121). […] Nonspecific binding of [^125I]-G-CSF was measured by incubations in the presence of a 100-fold molar excess of unlabeled G-CSF. […] Bound and free ligand activities were counted after cutting tubes in two pieces and placing the tips and tops, respectively into separate scintillation vials. […] The specific binding was determined from the amount of bound [^125I]-G-CSF blocked by competition with excess unlabeled G-CSF. […]
# [5] = biological target: T3, G-CSF receptor on neuronal (SH-SY5Y) cells; test: Saturation binding of [125I]-G-CSF to its receptor on SH-SY5Y cells; conditions: [125I]-G-CSF specific binding
# Description: as §3, §4
Molecule,IC50 [1] [nM],effect on G-CSF-induced Bcl2 expression [2],effect on G-CSF-induced PKCδVIII expression [2],Bcl2 protein expression [2],PKCδVIII protein expression [2],agonist/antagonist profile at the G-CSF receptor [2],effect on G-CSF-induced Bcl2 expression [3],effect on G-CSF-induced PKCδVIII expression [3],Bcl2 protein expression [3],PKCδVIII protein expression [3],agonist/antagonist profile at the G-CSF receptor [3],Bmax [4] [pM],Hill Coefficient [4],Bmax [5] [pM],Hill Coefficient [5]
"NC1=Nc2nc3ccccc3n2C(c2c[nH]nc2-c2cccc([N+](=O)[O-])c2)N1 (centres unmarked) [Compound 10, 4-[3-(3-nitrophenyl)-1H-pyrazol-4-yl]-3,4-dihydro[1,3,5]triazino[1,2-a]-benzimidazol-2-amine]",2.3,did not block the actions of G-CSF,did not block the actions of G-CSF,increased expression of both PKCδVIII and Bcl2 protein to levels equivalent to G-CSF alone,increased expression of both PKCδVIII and Bcl2 protein to levels equivalent to G-CSF alone,appear to act as agonists at the G-CSF receptor; also recorded: appeared to function as a G-CSF agonist,blocking the effects of G-CSF on Bcl2 expression; also recorded: at the lowest concentration antagonized the effects of G-CSF,did not antagonize the effects on PKCδVIII protein expression; also recorded: at the lowest concentration antagonized the effects of G-CSF,significantly elevating expression of both Bcl2 and PKCδVIII,significantly elevating expression of both Bcl2 and PKCδVIII,mixed agonist/antagonist,,,,
"COc1ccc2[nH]cc(C3NC(N)=Nc4nc5ccccc5n43)c2c1 (centres unmarked) [Compound 6, 4-(5-methoxy-1H-indol-3-yl)-3,4-dihydro-[1,3,5]-triazino-[1,2a]benzimidazol-2-amine]",13.7,did not change the expression of either Bcl2 or PKCδVIII,did not change the expression of either Bcl2 or PKCδVIII,"significantly increased Bcl2 protein expression at the low and intermediate, but not the high concentration; also recorded: at the highest concentration increases PKCδVIII without changing Bcl2 expression",stimulated PKCδVIII protein expression to levels equivalent to G-CSF alone; also recorded: at the highest concentration increases PKCδVIII,did not act as an antagonist of G-CSF action; also recorded: appear to act as agonists at the G-CSF receptor,blocked the increase in Bcl2 and PKCδVIII protein expression,blocked the increase in Bcl2 and PKCδVIII protein expression,increased expression of Bcl2,but not PKCδVIII at all 3 concentrations,mixed agonist/antagonist,,,,
B1,,,,,,,,,,,,901,1.19,4826,2.7 and 2.71
